{"source": "paper PMC9862759", "about": "(Viruses, 2023)", "key": {"[1]": {"test_system": "SARS-CoV-2 pseudovirus"}, "[2]": {"test_system": "Beas-2B cells", "assay": "MTT cytotoxicity on human normal cell line Beas-2B (24 h)", "format": "cell-based", "conditions": "for IC50: Homo sapiens, BEAS-2B, 24 h, read-out: IC50 Values of Human Normal Cell Lines, Beas-2B"}, "[3]": {"test_system": "HEK-293T-ACE2^h cells", "assay": "MTT cytotoxicity assay on host cells (4 h)", "format": "cell-based, human", "conditions": "for CC0 (maximum nontoxic concentration) / TC50 (concentration reducing cell viability by 50%): MTT, 4 h"}, "[4]": {"test_system": "HEK 293 cells", "assay": "MTT cytotoxicity on human normal cell line HEK 293 (24 h)", "format": "cell-based", "conditions": "for IC50: Homo sapiens, HEK293, 24 h, read-out: IC50 Values of Human Normal Cell Lines, HEK 293"}, "[5]": {"test_system": "SARS-CoV-2 pseudovirus", "assay": "microbe, parasite or virus in culture", "conditions": "Severe acute respiratory syndrome-related coronavirus, read-out: IC50 (inhibition of pseudovirus entry into host cells)"}, "[6]": {"biological_target": "SARS-CoV-2 spike RBD protein (Severe acute respiratory syndrome coronavirus 2, UniProt P0DTC2)", "assay": "biochemical", "format": "binding"}, "[7]": {"test_system": "LO2 cells", "assay": "MTT cytotoxicity on human normal cell line LO2 (24 h)", "format": "cell-based", "conditions": "for IC50: Homo sapiens, L02, 24 h, read-out: IC50 Values of Human Normal Cell Lines, LO2"}}, "note": "“And” between values parts separate entries of the source, which are not always exact repeats. Equal entries are not always repeated. Where two headings read alike, the source gives them in different places.", "data": [{"smiles": "O=c1c(O)c(-c2ccc(O)cc2)oc2cc(O)cc(O)c12", "note": "[compound 14, Kaempferol]", "values": [{"measurement": "SI (ratio of TC50 to IC50)", "setting": "[1]", "result": ">5.77"}, {"measurement": "IC50", "setting": "[1]; read-out: IC50 (inhibition of pseudovirus entry into host cells)", "result": "34.6 ± 7.69", "unit": "µM"}, {"measurement": "IC50", "setting": "[2]", "result": "> 200", "unit": "µM"}, {"measurement": "CC0 (maximum nontoxic concentration)", "setting": "[3]", "result": 200, "unit": "µM"}, {"measurement": "TC50 (concentration reducing cell viability by 50%)", "setting": "[3]", "result": ">200", "unit": "µM"}, {"measurement": "IC50", "setting": "[4]", "result": "> 200", "unit": "µM"}, {"measurement": "IC50", "setting": "[5]", "result": "< 50", "unit": "µM"}, {"measurement": "Kd", "setting": "[6]", "result": "18.5 ± 5.49", "unit": "µM"}, {"measurement": "IC50", "setting": "[7]", "result": "> 200", "unit": "µM"}]}, {"smiles": "O=c1c(O)c(-c2ccc(O)c(O)c2)oc2cc(O)cc(O)c12", "note": "[compound 15, Quercetin]", "values": [{"measurement": "IC50", "setting": "[2]", "result": "> 500", "unit": "µM"}, {"measurement": "CC0 (maximum nontoxic concentration)", "setting": "[3]", "result": 300, "unit": "µM"}, {"measurement": "TC50 (concentration reducing cell viability by 50%)", "setting": "[3]", "result": ">500", "unit": "µM"}, {"measurement": "IC50", "setting": "[4]", "result": "> 500", "unit": "µM"}, {"measurement": "Kd", "setting": "[6]", "result": "11.2 ± 3.85", "unit": "µM"}, {"measurement": "IC50", "setting": "[7]", "result": "> 500", "unit": "µM"}]}, {"smiles": "O=c1c(O)c(-c2cc(O)c(O)c(O)c2)oc2cc(O)cc(O)c12", "note": "[compound 16, Myricetin]", "values": [{"measurement": "IC50", "setting": "[2]", "result": "> 500", "unit": "µM"}, {"measurement": "cytotoxic effect (in words), Beas-2B", "setting": "[2]; tested dose of 500 μM", "result": "did not show any significant cytotoxic effect"}, {"measurement": "cytotoxicity to the host cells (in words)", "setting": "[3]; 500 μM", "result": "did not demonstrate any cytotoxicity"}, {"measurement": "CC0 (maximum nontoxic concentration)", "setting": "[3]", "result": 300, "unit": "µM"}, {"measurement": "TC50 (concentration reducing cell viability by 50%)", "setting": "[3]", "result": ">500", "unit": "µM"}, {"measurement": "IC50", "setting": "[4]", "result": "> 500", "unit": "µM"}, {"measurement": "cytotoxic effect (in words), HEK 293", "setting": "[4]; tested dose of 500 μM", "result": "did not show any significant cytotoxic effect"}, {"measurement": "binding signal", "setting": "[6]", "result": 0.60, "unit": "nm"}, {"measurement": "IC50", "setting": "[7]", "result": "> 500", "unit": "µM"}, {"measurement": "cytotoxic effect (in words), LO2", "setting": "[7]; tested dose of 500 μM", "result": "did not show any significant cytotoxic effect"}]}, {"smiles": "C[C@@H]1O[C@@H](OC[C@H]2O[C@@H](Oc3c(-c4ccc(O)c(O)c4)oc4cc(O)cc(O)c4c3=O)[C@H](O)[C@@H](O)[C@@H]2O)[C@H](O)[C@H](O)[C@H]1O", "note": "[compound 20, Rutin]", "values": [{"measurement": "SI (ratio of TC50 to IC50)", "setting": "[1]", "result": ">3.40"}, {"measurement": "IC50", "setting": "[2]", "result": "> 500", "unit": "µM"}, {"measurement": "CC0 (maximum nontoxic concentration)", "setting": "[3]", "result": 300, "unit": "µM"}, {"measurement": "TC50 (concentration reducing cell viability by 50%)", "setting": "[3]", "result": ">500", "unit": "µM"}, {"measurement": "IC50", "setting": "[4]", "result": "> 500", "unit": "µM"}, {"measurement": "IC50", "setting": "[5]", "result": "147 ± 21.1", "unit": "µM"}, {"measurement": "IC50", "setting": "[7]", "result": "> 500", "unit": "µM"}]}, {"smiles": "O=c1c(O[C@@H]2O[C@H](CO)[C@@H](O)[C@H](O)[C@H]2O)c(-c2ccc(O)c(O)c2)oc2cc(O)cc(O)c12", "note": "[compound 18, Isoquercitrin]", "values": [{"measurement": "SI (ratio of TC50 to IC50)", "setting": "[1]", "result": ">5.30"}, {"measurement": "IC50", "setting": "[2]", "result": "> 500", "unit": "µM"}, {"measurement": "CC0 (maximum nontoxic concentration)", "setting": "[3]", "result": 300, "unit": "µM"}, {"measurement": "TC50 (concentration reducing cell viability by 50%)", "setting": "[3]", "result": ">500", "unit": "µM"}, {"measurement": "IC50", "setting": "[4]", "result": "> 500", "unit": "µM"}, {"measurement": "IC50", "setting": "[5]", "result": "94.4 ± 1.59", "unit": "µM"}, {"measurement": "IC50", "setting": "[7]", "result": "> 500", "unit": "µM"}]}, {"smiles": "COc1ccc2cc1Oc1ccc(cc1)C[C@H]1c3c(cc4c(c3Oc3cc5c(cc3OC)CCN(C)[C@@H]5C2)OCO4)CCN1C", "note": "[Cepharanthine, reference compound]", "values": [{"measurement": "SI (ratio of TC50 to IC50)", "setting": "[1]", "result": 8.88}, {"measurement": "IC50", "setting": "[2]", "result": "26.1 ± 1.08", "unit": "µM"}, {"measurement": "CC0 (maximum nontoxic concentration)", "setting": "[3]", "result": 6.25, "unit": "µM"}, {"measurement": "TC50 (concentration reducing cell viability by 50%)", "setting": "[3]", "result": "11.54 µM and 11.54 ± 1.39 µM"}, {"measurement": "IC50", "setting": "[4]", "result": "24.3 ± 0.22", "unit": "µM"}, {"measurement": "IC50", "setting": "[5]", "result": "1.3 ± 0.18", "unit": "µM"}, {"measurement": "IC50", "setting": "[7]", "result": "16.06 ± 0.13", "unit": "µM"}]}, {"smiles": "O=c1cc(-c2ccc(O)c(O)c2)oc2c([C@@H]3O[C@H](CO)[C@@H](O)[C@H](O)[C@H]3O)c(O)cc(O)c12", "note": "[compound 5, Orientin]", "values": [{"measurement": "SI (ratio of TC50 to IC50)", "setting": "[1]", "result": ">7.85"}, {"measurement": "IC50", "setting": "[2]", "result": "> 500", "unit": "µM"}, {"measurement": "CC0 (maximum nontoxic concentration)", "setting": "[3]", "result": 300, "unit": "µM"}, {"measurement": "TC50 (concentration reducing cell viability by 50%)", "setting": "[3]", "result": ">500", "unit": "µM"}, {"measurement": "IC50", "setting": "[4]", "result": "> 500", "unit": "µM"}, {"measurement": "IC50", "setting": "[5]", "result": "63.7 ± 9.61", "unit": "µM"}, {"measurement": "IC50", "setting": "[7]", "result": "> 500", "unit": "µM"}]}, {"smiles": "Oc1cc(O)c2c(c1)OC(c1ccc(O)c(O)c1)C(O)C2", "note": "(racemic) [compound 21, (±)-Catechin]", "values": [{"measurement": "SI (ratio of TC50 to IC50)", "setting": "[1]", "result": ">3.19"}, {"measurement": "IC50", "setting": "[2]", "result": "> 500", "unit": "µM"}, {"measurement": "CC0 (maximum nontoxic concentration)", "setting": "[3]", "result": 300, "unit": "µM"}, {"measurement": "TC50 (concentration reducing cell viability by 50%)", "setting": "[3]", "result": ">500", "unit": "µM"}, {"measurement": "IC50", "setting": "[4]", "result": "> 500", "unit": "µM"}, {"measurement": "IC50", "setting": "[5]", "result": "157 ± 12", "unit": "µM"}, {"measurement": "IC50", "setting": "[7]", "result": "> 500", "unit": "µM"}]}, {"smiles": "Oc1cc(O)c2c(c1)O[C@H](c1ccc(O)c(O)c1)[C@@H](O)[C@@H]2c1c(O)cc(O)c2c1O[C@H](c1ccc(O)c(O)c1)[C@H](O)C2", "note": "[compound 30, Procyanidin B-4]", "values": [{"measurement": "SI (ratio of TC50 to IC50)", "setting": "[1]", "result": ">3.30"}, {"measurement": "IC50", "setting": "[2]", "result": "> 500", "unit": "µM"}, {"measurement": "CC0 (maximum nontoxic concentration)", "setting": "[3]", "result": 300, "unit": "µM"}, {"measurement": "TC50 (concentration reducing cell viability by 50%)", "setting": "[3]", "result": ">500", "unit": "µM"}, {"measurement": "IC50", "setting": "[4]", "result": "> 500", "unit": "µM"}, {"measurement": "IC50", "setting": "[5]", "result": "151 ± 28.1", "unit": "µM"}, {"measurement": "IC50", "setting": "[7]", "result": "> 500", "unit": "µM"}]}, {"smiles": "Oc1cc(O)c2c(c1)O[C@H](c1cc(O)c(O)c(O)c1)[C@H](O)C2", "note": "[compound 23, (-)-Epigallocatechin]", "values": [{"measurement": "SI (ratio of TC50 to IC50)", "setting": "[1]", "result": 6.11}, {"measurement": "IC50", "setting": "[2]", "result": "369 ± 1.7", "unit": "µM"}, {"measurement": "CC0 (maximum nontoxic concentration)", "setting": "[3]", "result": 200, "unit": "µM"}, {"measurement": "TC50 (concentration reducing cell viability by 50%)", "setting": "[3]", "result": "453.10 ± 4.55", "unit": "µM"}, {"measurement": "IC50", "setting": "[4]", "result": "> 500", "unit": "µM"}, {"measurement": "IC50", "setting": "[5]", "result": "74.2 ± 10.7", "unit": "µM"}, {"measurement": "IC50", "setting": "[7]", "result": "483.3 ± 1.52", "unit": "µM"}]}, {"smiles": "O=c1cc(-c2ccccc2)oc2cc(O[C@@H]3O[C@H](CO)[C@@H](O)[C@H](O)[C@H]3O)c(O)c(O)c12", "note": "[compound 10, Oroxin A]", "values": [{"measurement": "SI (ratio of TC50 to IC50)", "setting": "[1]", "result": ">3.55"}, {"measurement": "IC50", "setting": "[2]", "result": "> 300", "unit": "µM"}, {"measurement": "CC0 (maximum nontoxic concentration)", "setting": "[3]", "result": 300, "unit": "µM"}, {"measurement": "TC50 (concentration reducing cell viability by 50%)", "setting": "[3]", "result": ">300", "unit": "µM"}, {"measurement": "IC50", "setting": "[4]", "result": "258 ± 10.6", "unit": "µM"}, {"measurement": "IC50", "setting": "[5]", "result": "84.6 ± 10.8", "unit": "µM"}, {"measurement": "IC50", "setting": "[7]", "result": "> 300", "unit": "µM"}]}]}
